Assay [1] in a line: Sweetness potency at 2% sucrose solution.
Assay [2] in a line: Sweetness potency at 1 mg/mL sucrose solution; weakly bitter.
Assay [3] is described as follows: Sweetness potency at 4% sucrose solution.

In ChEMBL document CHEMBL1126320, “N,N'-disubstituted guanidine high-potency sweeteners” (J Med Chem, 1992) one finds Sweetness potency data, which are given here for 8 compounds.

Regarding `N#Cc1ccc(N/C(=N\CC(=O)O)NCC2CCCCC2)cc1`, the Sweetness potency in assay [1] is 35000.
Regarding `C[C@H](/N=C(\N)NCC(=O)O)c1ccccc1`, the Sweetness potency result in assay [2] is “weakly bitter”.
For `C[C@H](/N=C(/NCC(=O)O)Nc1ccc(C#N)cc1)c1ccccc1`, in assay [1], the Sweetness potency turned out to be 28000.
On to `N/C(=N\CC(=O)O)NCC1CCCCC1`, for which the Sweetness potency result in assay [2] is “weakly bitter”.
For `N/C(=N\C(c1ccccc1)c1ccccc1)NCC(=O)O`, in assay [3], the Sweetness potency turned out to be 400.
For `N/C(=N\C1CCCCCCC1)NCC(=O)O`, the Sweetness potency in assay [1] was determined as 200.
Same read-out and setting: next, `N#Cc1ccc(N/C(=N\CC(=O)O)NC(c2ccccc2)c2ccccc2)cc1`: 200000; `N#Cc1ccc(N/C(=N/CC(=O)O)NC2CCCCCCC2)cc1`: 170000.
